Values after ≈ are worked out from the molar mass of the structure shown.
Legend:
Format in all cases: functional
Aspergillus tubingensis [1] = assay: Antifungal activity against Aspergillus tubingensis isolate CM-4000 after 48 hrs by EUCAST broth dilution method; settings: isolate CM-4000, 48 h
Aspergillus tubingensis [2] = assay: Antifungal activity against Aspergillus tubingensis isolate CM-4897 obtained from blood culture after 48 hrs by EUCAST broth dilution method; settings: isolate CM-4897, 48 h
Aspergillus niger [3] = assay: Antifungal activity against Aspergillus niger isolate CM-3551 obtained from respiratory tract infection of patient after 48 hrs by EUCAST broth dilution method; settings: isolate CM-3551, 48 h
Aspergillus niger [4] = assay: Antifungal activity against Aspergillus niger isolate CM-3236 obtained from respiratory tract infection of patient after 48 hrs by EUCAST broth dilution method; settings: isolate CM-3236, 48 h
Aspergillus niger [5] = assay: Antifungal activity against Aspergillus niger isolate CM-3586 obtained from catheter of patient after 48 hrs by EUCAST broth dilution method; settings: isolate CM-3586, 48 h
Aspergillus tubingensis [6] = assay: Antifungal activity against Aspergillus tubingensis isolate CM-4264 obtained from blood culture after 48 hrs by EUCAST broth dilution method; settings: isolate CM-4264, 48 h
Aspergillus tubingensis [7] = assay: Antifungal activity against Aspergillus tubingensis isolate CM-3177 obtained from respiratory tract infection of patient after 48 hrs by EUCAST broth dilution method; settings: isolate CM-3177, 48 h
Aspergillus niger [8] = assay: Antifungal activity against Aspergillus niger isolate CM-3672 obtained from cutaneous layer of patient after 48 hrs by EUCAST broth dilution method; settings: isolate CM-3672, 48 h
Aspergillus niger [9] = assay: Antifungal activity against Aspergillus niger isolate CM-4213 obtained from respiratory tract infection of patient after 48 hrs by EUCAST broth dilution method; settings: isolate CM-4213, 48 h
Aspergillus tubingensis [10] = assay: Antifungal activity against Aspergillus tubingensis isolate CM-4003 after 48 hrs by EUCAST broth dilution method; settings: isolate CM-4003, 48 h
Aspergillus tubingensis [11] = assay: Antifungal activity against Aspergillus tubingensis isolate CM-3507 obtained from respiratory tract infection of patient after 48 hrs by EUCAST broth dilution method; settings: isolate CM-3507, 48 h
Aspergillus foetidus [12] = assay: Antifungal activity against Aspergillus foetidus isolate CM-4995 obtained from prosthesis after 48 hrs by EUCAST broth dilution method; settings: isolate CM-4995, 48 h
Aspergillus niger [13] = assay: Antifungal activity against Aspergillus niger isolate CM-3506 obtained from respiratory tract infection of patient after 48 hrs by EUCAST broth dilution method; settings: isolate CM-3506, 48 h
Aspergillus tubingensis [14] = assay: Antifungal activity against Aspergillus tubingensis isolate CM-4688 obtained from respiratory tract infection of patient after 48 hrs by EUCAST broth dilution method; settings: isolate CM-4688, 48 h
Aspergillus tubingensis [15] = assay: Antifungal activity against Aspergillus tubingensis isolate CM-4296 obtained from respiratory tract infection of patient after 48 hrs by EUCAST broth dilution method; settings: isolate CM-4296, 48 h
Aspergillus niger [16] = assay: Antifungal activity against Aspergillus niger isolate CM-3636 obtained from respiratory tract infection of patient after 48 hrs by EUCAST broth dilution method; settings: isolate CM-3636, 48 h
Aspergillus niger [17] = assay: Antifungal activity against Aspergillus niger isolate CM-4004 obtained from after 48 hrs by EUCAST broth dilution method; settings: isolate CM-4004, 48 h
Aspergillus tubingensis [18] = assay: Antifungal activity against Aspergillus tubingensis isolate CM-4005 after 48 hrs by EUCAST broth dilution method; settings: isolate CM-4005, 48 h
Aspergillus niger [19] = assay: Antifungal activity against Aspergillus niger isolate CM-3257 obtained from respiratory tract infection of patient after 48 hrs by EUCAST broth dilution method; settings: isolate CM-3257, 48 h
Aspergillus niger [20] = assay: Antifungal activity against Aspergillus niger isolate CM-4262 after 48 hrs by EUCAST broth dilution method Ophthalmic; settings: isolate CM-4262, 48 h
Aspergillus tubingensis [21] = assay: Antifungal activity against Aspergillus tubingensis isolate CM-3810 obtained from respiratory tract infection of patient after 48 hrs by EUCAST broth dilution method; settings: isolate CM-3810, 48 h
Aspergillus tubingensis [22] = assay: Antifungal activity against Aspergillus tubingensis isolate CM-3125 obtained from respiratory tract infection of patient after 48 hrs by EUCAST broth dilution method; settings: isolate CM-3125, 48 h
Aspergillus tubingensis [23] = assay: Antifungal activity against Aspergillus tubingensis isolate CM-4899 obtained from respiratory tract infection of patient after 48 hrs by EUCAST broth dilution method; settings: isolate CM-4899, 48 h
Aspergillus foetidus [24] = assay: Antifungal activity against Aspergillus foetidus isolate CM-5264 obtained from respiratory tract infection of patient after 48 hrs by EUCAST broth dilution method; settings: isolate CM-5264, 48 h
Aspergillus tubingensis [25] = assay: Antifungal activity against Aspergillus tubingensis isolate CM-3585 after 48 hrs by EUCAST broth dilution method; settings: isolate CM-3585, 48 h
Aspergillus tubingensis [26] = assay: Antifungal activity against Aspergillus tubingensis isolate CM-3654 obtained from blood culture after 48 hrs by EUCAST broth dilution method; settings: isolate CM-3654, 48 h
Aspergillus foetidus [27] = assay: Antifungal activity against Aspergillus foetidus isolate CM-4002 after 48 hrs by EUCAST broth dilution method; settings: isolate CM-4002, 48 h
Aspergillus niger [28] = assay: Antifungal activity against Aspergillus niger isolate CM-5095 obtained from respiratory tract infection of patient after 48 hrs by EUCAST broth dilution method; settings: isolate CM-5095, 48 h
Aspergillus tubingensis [29] = assay: Antifungal activity against Aspergillus tubingensis isolate CM-5094 obtained from respiratory tract infection of patient after 48 hrs by EUCAST broth dilution method; settings: isolate CM-5094, 48 h
Aspergillus tubingensis [30] = assay: Antifungal activity against Aspergillus tubingensis isolate CM-4001 after 48 hrs by EUCAST broth dilution method; settings: isolate CM-4001, 48 h
Aspergillus niger [31] = assay: Antifungal activity against Aspergillus niger isolate CM-4316 obtained from respiratory tract infection of patient after 48 hrs by EUCAST broth dilution method; settings: isolate CM-4316, 48 h
Aspergillus niger [32] = assay: Antifungal activity against Aspergillus niger isolate CM-3641 obtained from respiratory tract infection of patient after 48 hrs by EUCAST broth dilution method; settings: isolate CM-3641, 48 h
Aspergillus tubingensis [33] = assay: Antifungal activity against Aspergillus tubingensis isolate CM-4352 obtained from respiratory tract infection of patient after 48 hrs by EUCAST broth dilution method; settings: isolate CM-4352, 48 h
Aspergillus tubingensis [34] = assay: Antifungal activity against Aspergillus tubingensis isolate CM-3123 obtained from respiratory tract infection of patient after 48 hrs by EUCAST broth dilution method; settings: isolate CM-3123, 48 h

- MIC (Aspergillus tubingensis [1]): 0.16 µg/mL (≈ 0.173 µM)
- MIC (Aspergillus tubingensis [2]): 0.16 µg/mL (≈ 0.173 µM)
- MIC (Aspergillus niger [3]): 0.5 µg/mL (≈ 0.541 µM)
- MIC (Aspergillus niger [4]): 0.19 µg/mL (≈ 0.206 µM)
- MIC (Aspergillus niger [5]): 0.25 µg/mL (≈ 0.271 µM)
- MIC (Aspergillus tubingensis [6]): 0.12 µg/mL (≈ 0.13 µM)
- MIC (Aspergillus tubingensis [7]): 0.16 µg/mL (≈ 0.173 µM)
- MIC (Aspergillus niger [8]): 0.12 µg/mL (≈ 0.13 µM)
- MIC (Aspergillus niger [9]): 0.33 µg/mL (≈ 0.357 µM)
- MIC (Aspergillus tubingensis [10]): 0.12 µg/mL (≈ 0.13 µM)
- MIC (Aspergillus tubingensis [11]): 0.19 µg/mL (≈ 0.206 µM)
- MIC (Aspergillus foetidus [12]): 0.21 µg/mL (≈ 0.227 µM)
- MIC (Aspergillus niger [13]): 0.19 µg/mL (≈ 0.206 µM)
- MIC (Aspergillus tubingensis [14]): 0.21 µg/mL (≈ 0.227 µM)
- MIC (Aspergillus tubingensis [15]): 0.12 µg/mL (≈ 0.13 µM)
- MIC (Aspergillus niger [16]): 0.25 µg/mL (≈ 0.271 µM)
- MIC (Aspergillus niger [17]): 0.25 µg/mL (≈ 0.271 µM)
- MIC (Aspergillus tubingensis [18]): 0.12 µg/mL (≈ 0.13 µM)
- MIC (Aspergillus niger [19]): 0.25 µg/mL (≈ 0.271 µM)
- MIC (Aspergillus niger [20]): 0.25 µg/mL (≈ 0.271 µM)
- MIC (Aspergillus tubingensis [21]): 0.25 µg/mL (≈ 0.271 µM)
- MIC (Aspergillus tubingensis [22]): 0.12 µg/mL (≈ 0.13 µM)
- MIC (Aspergillus tubingensis [23]): 0.16 µg/mL (≈ 0.173 µM)
- MIC (Aspergillus foetidus [24]): 0.12 µg/mL (≈ 0.13 µM)
- MIC (Aspergillus tubingensis [25]): 0.19 µg/mL (≈ 0.206 µM)
- MIC (Aspergillus tubingensis [26]): 0.19 µg/mL (≈ 0.206 µM)
- MIC (Aspergillus foetidus [27]): 0.25 µg/mL (≈ 0.271 µM)
- MIC (Aspergillus niger [28]): 0.19 µg/mL (≈ 0.206 µM)
- MIC (Aspergillus tubingensis [29]): 0.12 µg/mL (≈ 0.13 µM)
- MIC (Aspergillus tubingensis [30]): 0.19 µg/mL (≈ 0.206 µM)
- MIC (Aspergillus niger [31]): 0.19 µg/mL (≈ 0.206 µM)
- MIC (Aspergillus niger [32]): 0.25 µg/mL (≈ 0.271 µM)
- MIC (Aspergillus tubingensis [33]): 0.28 µg/mL (≈ 0.303 µM)
- MIC (Aspergillus tubingensis [34]): 0.25 µg/mL (≈ 0.271 µM)
SMILES: C[C@@H]1[C@H](O)[C@@H](C)/C=C/C=C/C=C/C=C/C=C/C=C/C=C/[C@H](O[C@@H]2O[C@H](C)[C@@H](O)[C@H](N)[C@@H]2O)C[C@@H]2O[C@](O)(C[C@@H](O)C[C@@H](O)[C@H](O)CC[C@@H](O)C[C@@H](O)CC(=O)O[C@H]1C)C[C@H](O)[C@H]2C(=O)O [AMPHOTERICIN B]
